Measurements published in patent US8802711B2, “TRPV1 antagonists” (AbbVie Inc., priority 2011, dated 2014).

Key:
Sprague-Dawley rats [1] = experiment: Rat tail immersion assay (noxious thermosensation); type: in vivo; settings: rat, 100 μmol/kg oral, one hour post dosing, 55° C. water bath, relative to vehicle
Method: (§1) Adult male Sprague-Dawley rats (250-300 g body weight, Charles River Laboratories, Portage, Mich.) were used. Animal handling and experimental protocols were approved by the Institutional Animal Care and Use Committee (IACUC) at Abbott Laboratories. For all surgical procedures, animals were maintained under isoflurane anesthesia (4-5% to induce, 1-3% to maintain), and the incision sites were sterilized using a 10% povidone-iodine solution prior to and after surgeries.
Compounds were tested for their effects on noxious thermosensation using the tail immersion assay. Testing was performed one hour following oral administration of 100 μmol/kg of the compound in 10% ethanol/20% Tween-80/70% PEG-400 (2 mL/kg). Morphine (6 mg/kg) was administered interperitoneally (i.p.) using saline (2 mL/kg) as the vehicle. For testing, a circulating water bath was heated to 55° C. Thirty to sixty minutes post dosing, the rats were handled for a few seconds to calm them down and then cupped with their back against the tester's hand at a slight angle with head facing away from the tester. With rat in one hand and a 0.01 second stopwatch in the other hand, the tail was quickly immersed 6-8 cm in the water bath or to a distance leaving 2-3 cm of tail out of water. The timer was started simultaneously. When the rat flinched or attempted withdrawal, timer was immediately stopped and the rat's tail was quickly removed from water bath. This response latency (in seconds) was recorded. Process was repeated 3 times with 3-4 minutes between readings and the average response latency was calculated.
For a given example, a percent increase in the average response latency (in seconds) for tail withdrawal relative to a vehicle control was determined. % increase=[(tc−tv)/tv]×100%
tc=response latency (in seconds) with oral dosing of compounds
tv=response latency (in seconds) with oral dosing of vehicle
The % increases in tail withdrawal latency relative to vehicle control are divided into the following categories: […]

Sprague-Dawley rats [2] = experiment: Sodium iodoacetate-induced knee joint osteoarthritic pain model; type: in vivo, rat; settings: 1 hour after dosing, % return to normalcy of hind limb grip force
Excerpt: as §1
Unilateral knee joint osteoarthritis was induced in the rats by a single intra-articular (i.a.) injection of sodium iodoacetate (3 mg in 0.05 mL sterile isotonic saline) into the right knee joint cavity under light isoflurane anesthesia using a 26 G needle. […] Pain behavioral assessment of hind limb grip force was conducted by recording the maximum compressive force exerted on the hind limb strain gauge setup, in a commercially available grip force measurement system (Columbus Instruments, Columbus, Ohio), to elicit paw withdrawal. The grip force data was converted to a maximum hindlimb cumulative compressive force (CFmax) (gram force)/kg body weight for each animal. The analgesic effects of test compounds were determined 20 days following the i.a. injection of sodium iodoacetate. The vehicle control group for each compound being tested was assigned 0% whereas the age matched naïve group was assigned as being 100% (normal). The % effect for each dose group was then expressed as % return to normalcy compared to the naïve group. Test compounds were administered orally in 10% ethanol/20% Tween 80/70% polyethylene glycol-400 vehicle at a volume of 2 mL/kg. The assessment of the analgesic effects of test compounds was made 1 hour following oral administration. The assessment of the analgesic effects of test compounds can be made following a single dose or following repeated administration wherein the frequency of dosing is 1 to 2 times daily. The duration of such repeated daily dosing may last for any time greater than one day. A typical duration of repeated daily dosing is about 5 days to about 12 days.

Sprague-Dawley rats [3] = experiment: Rat acute capsaicin-induced flinching behavior; type: in vivo; settings: percent reduction in number of flinching behaviors
Excerpt: as §1
Rats were placed in individual observation cages. […] One hour after administration of the test compound, 2.5 μg of capsaicin in a 10 μL solution of 10% ethanol/90% hydroxypropyl-β-cyclodextrin was injected subcutaneously into the dorsal aspect of the right hind paw. The observation cage was then suspended above mirrors in order to facilitate observation. […] The number of flinching behaviors of the injured paw was recorded during the five minute observation period (Gilchrist, H. D.; Allard, B. L.; Simone, D. A.; Enhanced withdrawal responses to heat and mechanical stimuli following intraplantar injection of capsaicin in rats. Pain, 1996, 67, 179-188). The percent reduction in the number of flinching behaviors produced with oral administration of representative compounds of the present invention relative to control-treated animals (% effect) is reported in Table 3.

Sprague-Dawley rats [4] = experiment: Capsaicin-induced secondary mechanical hypersensitivity; type: in vivo, rat
Excerpt: as §1
Rats were allowed to acclimate to the study room for 1 hour. They were then briefly restrained, and capsaicin was administered at 10 μg in 10 μL of vehicle (10% ethanol and 2-hydroxypropyl cyclodextrin) by intraplantar injection into the center of the right hind paw. Secondary mechanical hyperalgesia was measured at the heel away from the site of injection at 180 minutes following the administration of capsaicin (Joshi et al 2006, Neuroscience 143, 587-596). Compounds were administered orally (p.o.) one hour before testing ([…]).
Tactile allodynia was measured using calibrated von Frey filaments (Stoelting, Wood Dale, Ill.) as described in Chaplan, S. R., F. W. Bach, J. M. Pogrel, J. M. Chung and T. L. Yaksh, Quantitative assessment of tactile allodynia in the rat paw, J. Neurosci. Methods, 1994, 53, 55. Rats were placed into inverted individual plastic containers (20×12.5×20 cm) on top of a suspended wire mesh grid, and acclimated to the test chambers for 20 minutes. The von Frey filaments with different bending forces (starting with the lowest first and then progressively increasing) were presented perpendicularly to the plantar surface of the selected hind paw, and then hold in this position for approximately 8 sec with enough force to cause a slight bend in the filament. Positive responses included an abrupt withdrawal of the hind paw from the stimulus, or flinching behavior immediately following removal of the stimulus.

Row | Compound | % Increase in tail withdrawal latency (Sprague-Dawley rats [1]) | % effect (Sprague-Dawley rats [2]; 10 mg/kg p.o.) [%] | % effect (Sprague-Dawley rats [3]; 100 μmol/kg p.o.) [%] | % effect (Sprague-Dawley rats [4]; 10 μmol/kg p.o.) [%] | % effect (Sprague-Dawley rats [3]; 10 μmol/kg p.o.) [%] | % effect (Sprague-Dawley rats [4]; 100 μmol/kg p.o.) [%] | change in vivo at 100 µmol/kg (Sprague-Dawley rats [1]; 1 h, read-out: % Increase in tail withdrawal latency) [%] | % effect (Sprague-Dawley rats [2]; 100 μmol/kg p.o.) [%]
1 | Cn1ncc2c(NC(=O)N[C@@H]3CC[C@H](c4ccccc4)C3)cccc21 [Example 4, 1-(1-methyl-1H-indazol-4-yl)-3-[(1R,3S)-3-phenylcyclopentyl]urea] | − | 50 |  |  |  |  |  | 
2 | Cc1cc2c(NC(=O)N[C@@H]3CC[C@H](c4ccccc4)C3)c(F)ccc2cn1 [Example 6, 1-(6-fluoro-3-methylisoquinolin-5-yl)-3-[(1R,3S)-3-phenylcyclopentyl]urea] | − |  | 88 | 59 |  |  |  | 
3 | O=C(Nc1cccc2[nH]ncc12)N[C@H]1CC[C@H](c2ccccc2)C1 [Example 14, 1-(1H-indazol-4-yl)-3-[(1S,3S)-3-phenylcyclopentyl]urea] | − |  |  |  | 76 | 48 |  | 
4 | O=C(Nc1cccc2[nH]ncc12)N[C@@H]1CC[C@@H](c2ccccc2)C1 [Example 21, 1-(1H-indazol-4-yl)-3-[(1R,3R)-3-phenylcyclopentyl]urea] |  | 37 |  |  |  |  | 10 to 25 | 
5 | O=C(Nc1cccc2[nH]ncc12)N[C@H]1CC[C@@H](c2ccccc2)C1 [Example 28, 1-(1H-indazol-4-yl)-3-[(1S,3R)-3-phenylcyclopentyl]urea] | − |  |  |  | 60 | 81 |  | 78
